Reference: BindingDB's records for doi:10.1021/jm00157a018 (1987)
Residues, ends and D or L forms follow the SMILES beside them. *: point of attachment. X2 = O=C(N/N=C1/CC[C@@]2(O)[C@H]3Cc4ccc(O)c5c4[C@@]2(CCN3CC2CC2)[C@H]1O5)*; X1 = CN1CC[C@]23c4c5ccc(O)c4O[C@H]2/C(=N\NC(=O)*)CC[C@@]3(O)[C@H]1C5

Target: Mu-type opioid receptor (Cavia porcellus, UniProt P97266)
Test: ChEBML_145291

Chain of Mu-type opioid receptor (P97266 whole entry): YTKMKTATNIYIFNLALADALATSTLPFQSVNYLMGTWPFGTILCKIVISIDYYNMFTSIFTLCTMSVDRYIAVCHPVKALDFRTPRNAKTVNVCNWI

Q: Which Ki does the source give for `CN1CCC23c4c5ccc(O)c4O[C@H]2C(=NNC(N)=O)CC[C@@]3(O)C1C5` (stereo partly drawn) here?
A: 15 nM

Target: not listed separately
Test: Binding affinity against Opioid receptor delta 1 of guinea pig brain membranes using 1 nM of [3H]DADLE as radioligand

Q: For `NC(=O)NN=C1CC[C@@]2(O)C3Cc4ccc(O)c5c4C2(CCN3CC2CC2)[C@H]1O5` (stereo partly drawn), which Ki is on record?
A: 3.7 nM

Q: With `CC[C@H](C)[C@H](NC(=O)[C@H](CCCNC(=N)N)NC(=O)[C@H](CCCNC(=N)N)NC(=O)[C@H](CC(C)C)NC(=O)[C@H](Cc1ccccc1)NC(=O)CNC(=O)CNC(=O)[C@@H](N)Cc1ccc(O)cc1)C(=O)OC` as the molecule, how does the Ki read?
A: 50 nM

Q: For `CC(C)CC(NC(=O)C(Cc1ccccc1)NC(=O)NN=C1CC[C@@]2(O)C3Cc4ccc(O)c5c4C2(CCN3C)[C@H]1O5)C(=O)O` (stereo partly drawn), which Ki is on record?
A: 6.5 nM

Q: With `CN1CCC23c4c5ccc(O)c4O[C@H]2C(=NNC(N)=O)CC[C@@]3(O)C1C5` (stereo partly drawn) as the molecule, how does the Ki read?
A: 69 nM

Q: For `CC(C)CC(NC(=O)C(Cc1ccccc1)NC(=O)NN=C1CC[C@@]2(O)C3Cc4ccc(O)c5c4C2(CCN3CC2CC2)[C@H]1O5)C(=O)O` (stereo partly drawn), which Ki is on record?
A: 3.1 nM

Q: With `CC[C@H](C)[C@H](NC(=O)[C@H](CCCN=C(N)N)NC(=O)[C@H](CCCN=C(N)N)NC(=O)[C@H](CC(C)C)NC(=O)[C@H](Cc1ccccc1)NC(=O)N/N=C1/CC[C@@]2(O)[C@H]3Cc4ccc(O)c5c4[C@@]2(CCN3C)[C@H]1O5)C(=O)OC` (X1-FLRRI-OMe) as the molecule, how does the Ki read?
A: 24 nM

Q: With `CC[C@H](C)[C@H](NC(=O)[C@H](CCCN=C(N)N)NC(=O)[C@H](CCCN=C(N)N)NC(=O)[C@H](CC(C)C)NC(=O)[C@H](Cc1ccccc1)NC(=O)N/N=C1/CC[C@@]2(O)[C@H]3Cc4ccc(O)c5c4[C@@]2(CCN3CC2CC2)[C@H]1O5)C(=O)OC` (X2-FLRRI-OMe) as the molecule, how does the Ki read?
A: 5.7 nM
